The data set is classed as physicochemical. The procedure:
0.42 g (equal to 2.5 mMoles) of 2-chloroadenine were suspended in 50 ml of DMF and heated while being stirred. Aliquots of DMF were added until a complete hot solubilisation was obtained. 100 ml of solvent were necessary to obtain the solubilisation of the 2-chloroadenine.
A solubilisation test was also carried out of 2-chloroadenine in 25% KOH in order to increase the solubilisation. 4.05 grams of 2-chloroadenine were resuspended in KOH being stirred. Aliquots of (25% w:v) KOH were added until complete solubilisation was obtained. Even after the addition of 100 ml of 25% KOH, the 2-chloroadenine remained practically undissolved.

`Nc1nc(Cl)nc2nc[nH]c12` [2-chloroadenine]: the “solubility in 25% KOH” value is given as “practically insoluble” and the “volume of solvent necessary to obtain the solubilisation” value worked out at 100 mL.

Values taken from patent publication US8012717B2, “Method for the production of cladribine” (Explora Laboratories S.A., priority 2006, dated 2011).
